Measurements taken from patent US7482321B2, “Extended glucagon-like peptide-1 analogs” (Eli Lilly and Company, priority 2002, dated 2009).
Several values for one entry are separate records, joined by “and”; a condition that tells them apart may be missing. Equal entries are not always repeated. Where two headings read alike, the source gives them in different places. Marks after values point to notes of the source that are not given here. Ends that are not written are not given here.

Key:
[1] = Pharmacokinetics after single intravenous dose in rats; conditions: single i.v. 10 μg/kg; for level at 5 min / level at 0.25 h / level at 0.5 h / level at 1 h / level at 2 h: Sprague Dawley, plasma, Plasma Concentration; for level at 1 h: 60 min; for AUC0-last / Cl / Cmax / Vss / t½ / AUC(0-t) / clearance / Vd / half-life: Sprague Dawley rats; for AUC(0-t): AUC0-last; for clearance: Cl; for Vd: Vss; for half-life: t½
Method: Pharmacokinetic parameters were determined for the following 5 different extended GLP-1 peptides:
Parameters were determined following a single intravenous dose of 10 μg/kg in four different rats.

[2] = Dog hyperglycemic clamp study, GLP-1 peptide concentration; design: species or system dogs; conditions: in vivo, iv
Method: Several different extended and non-extended GLP-1 peptides were tested for activity in a hyperglycemic clamp study in dogs. Glucose was infused for 200 minutes to maintain constant levels. For the first 80 minutes dogs were infused intravenously with vehicle to establish a baseline insulin concentration. For the next 60 minutes, GLP-1 peptides were administered at a rate of 1 pmol/kg/min. For the final 60 minutes the infusion rate of each GLP-1 compound was increased to 3 pmol/kg/min. Blood samples were taken periodically for the determination of insulin and GLP-1 peptide concentrations. Insulin change values were calculated as the difference between the value at time t and the average value during the last 20 minutes of the control period (60-80) minutes and are presented in Table 3. Areas under the insulin change curves were calculated using the trapezoidal rule over the last 30 minutes of each infusion period. Values listed are the means±standard error of the mean (SEM).

[3] = rat, iv, 10 ug/kg, 5 min, Mean of 4 rats
[4] = rat, iv, 10 ug/kg, 5 min, individual rats
[5] = rat, iv, 10 ug/kg, 15 min, Mean of 4 rats
[6] = rat, iv, 10 ug/kg, 15 min, individual rats
[7] = rat, iv, 10 ug/kg, 30 min, Mean of 4 rats
[8] = rat, iv, 10 ug/kg, 30 min, individual rats
[9] = rat, iv, 10 ug/kg, Mean of 4 rats (values below LLOQ taken as zero)
[10] = rat, iv, 10 ug/kg, individual rats
[11] = rat, iv, 10 ug/kg, 120 min, individual rats
[12] = rat, in vivo, iv, 10 ug/kg, Mean of 4 rats
[13] = rat, in vivo, iv, 10 ug/kg, individual rats
[14] = rat, in vivo, iv, 10 ug/kg, Cmax, Mean of 4 rats
[15] = rat, in vivo, iv, 10 ug/kg, Cmax, individual rats
[16] = infusion rate 1 pmol/kg/min i.v., dog hyperglycemic clamp, after 60 minutes of infusion, mean ± SEM, read-out: Compound Concentration (t = 60′)
[17] = infusion rate 3 pmol/kg/min i.v., dog hyperglycemic clamp, after 60 minutes of infusion, mean ± SEM, read-out: Compound Concentration (t = 60′)

Row | Molecule | Plasma Concentration ([1]; 120 min, individual rats) | level at 5 min [1, 3] [ng/mL] | level at 5 min [1, 4] [ng/mL] | level at 0.25 h [1, 5] [ng/mL] | level at 0.5 h [1, 7] [ng/mL] | level at 1 h [1, 9] [ng/mL] | AUC0-last ([1]; individual rats) | Cl ([1]; individual rats) | Cmax ([1]; individual rats) | Vss ([1]; individual rats) | t½ ([1]; individual rats) | AUC(0-t) [1, 12] [ng·h/mL] | AUC(0-t) [1, 13] [ng·h/mL] | clearance [1, 12] [mL/min/kg] | clearance [1, 13] [mL/min/kg] | Cmax [1, 14] [ng/mL] | Vd [1, 12] [L/kg] | half-life [1, 12] [min] | level at time molar at 1 h ([2]; dog, 1 pmol/kg/min) [nM] | level at time molar at 1 h ([2]; dog, 3 pmol/kg/min) [nM] | other results
1 | CC[C@H](C)[C@H](NC(=O)[C@H](Cc1ccccc1)NC(=O)[C@H](CCC(=O)O)NC(=O)[C@H](CCCCN)NC(=O)[C@H](C)NC(=O)[C@H](C)NC(=O)[C@H](CCC(N)=O)NC(=O)CNC(=O)[C@H](CCC(=O)O)NC(=O)[C@H](CC(C)C)NC(=O)[C@H](Cc1ccc(O)cc1)NC(=O)[C@H](CO)NC(=O)[C@H](CO)NC(=O)[C@@H](NC(=O)[C@H](CC(=O)O)NC(=O)[C@H](CO)NC(=O)[C@@H](NC(=O)[C@H](Cc1ccccc1)NC(=O)[C@@H](NC(=O)CNC(=O)[C@H](CCC(=O)O)NC(=O)[C@@H](NC(=O)[C@@H](N)Cc1c[nH]cn1)C(C)C)[C@@H](C)O)[C@@H](C)O)C(C)C)C(=O)N[C@@H](C)C(=O)N[C@@H](Cc1c[nH]c2ccccc12)C(=O)N[C@@H](CC(C)C)C(=O)N[C@H](C(=O)N[C@@H](CCCCN)C(=O)NCC(=O)N[C@@H](CCCNC(=N)N)C(=O)NCC(=O)N[C@@H](CO)C(=O)N[C@@H](CO)C(=O)NCC(=O)N[C@@H](C)C(=O)N1CCC[C@H]1C(=O)N1CCC[C@H]1C(=O)N1CCC[C@H]1C(=O)N[C@@H](CO)C(=O)O)C(C)C [Compound 4] | <150 ^a pg/mL | 23.6 | 25.4 | 9.86 | 3.18 | 0.636 | 486.7 ng·min/mL and 424.9 ng·min/mL and 461.5 ng·min/mL | 20.5 mL/min/kg and 23.5 mL/min/kg and 21.7 mL/min/kg | 24.9 ng/mL and 20.0 ng/mL and 24.0 ng/mL | 0.2511 L/kg and 0.3159 L/kg and 0.2492 L/kg | 11.9 min and 11.2 min and 11.0 min | 8.05 | 9.33 | 20.9 | 17.9 | 23.6 | 0.269 | 11.5 | – | – | Plasma Concentration ([1]; 5 min, individual rats): 24853 pg/mL; level at 0.25 h [1, 6]: 12.1 ng/mL; level at 0.5 h [1, 8]: 4.37 ng/mL; level at 1 h [1, 10]: 0.869 ng/mL; level at 2 h [1, 11]: < 0.15 ng/mL; Cmax [1, 15]: 25.4 ng/mL; Vd [1, 13]: 0.259 L/kg; half-life [1, 13]: 12 min
2 | HVEGTFTSDVSSYLEEQAAKEFIAWLIKGGPSSGAPPPS [SEQ ID NO:55] | – | – | – | – | – | – | – | – | – | – | – | – | – | – | – | – | – | – | 0.246 ± 0.017 | 0.766 ± 0.046 | –
3 | HVEGTFTSDVSSYLEEQAAKEFIAWLIKGGPSSGDPPPS [Compound 2] | <150 ^a pg/mL | 17.3 | – | 6.82 | 2.95 | 1.05 | 312.2 ng·min/mL and 430.0 ng·min/mL and 409.1 ng·min/mL | 32.0 mL/min/kg and 23.3 mL/min/kg and 24.4 mL/min/kg | 9.8 ng/mL and 16.9 ng/mL and 21.4 ng/mL and 21.1 ng/mL | 0.9739 L/kg and 0.3557 L/kg and 0.2833 L/kg and 0.3134 L/kg | 35.8 min and 12.3 min and 10.6 min and 14.4 min | 6.93 | 8.55 | 24.8 | 19.5 | 17.3 | 0.482 | 18.3 | – | – | level at time molar at 1 h [2, 16]: 0.204 ± 0.024 nM; level at time molar at 1 h [2, 17]: 0.755 ± 0.072 nM
4 | HVEGTFTSDVSSYLEEQAAKEFIAWLIKGGPSSGDPPPS-NH2 [Compound 1] | <150 ^a pg/mL | 23.5 | 24.6 | 9.61 | 3.1 | 0.554 | 478.8 ng·min/mL and 448.5 ng·min/mL and 469.4 ng·min/mL | 20.9 mL/min/kg and 22.3 mL/min/kg and 21.3 mL/min/kg | 24.1 ng/mL and 22.8 ng/mL and 22.4 ng/mL | 0.2463 L/kg and 0.2657 L/kg and 0.2704 L/kg | 10.1 min and 10.9 min | 7.92 | 8.41 | 21.1 | 19.8 | 23.5 | 0.264 | 11 | – | – | level at time molar at 1 h [2, 16]: 0.268 ± 0.045 nM; level at time molar at 1 h [2, 17]: 0.977 ± 0.135 nM; Plasma Concentration ([1]; 30 min, individual rats): 3119 pg/mL; level at 0.25 h [1, 6]: 10 ng/mL; level at 0.5 h [1, 8]: 3.12 ng/mL; level at 2 h [1, 11]: < 0.15 ng/mL; Cmax [1, 15]: 24.6 ng/mL; Vd [1, 13]: 0.273 L/kg; half-life [1, 13]: 13.1 min
5 | HVEGTFTSDVSSYLEEQAAKEFIAWLVKGRGSSGAPPPS [Compound 3] | <150 ^a pg/mL | 23.2 | 23.6 | 8.81 | 3.44 | 0.657 | 465.6 ng·min/mL and 492.5 ng·min/mL and 409.1 ng·min/mL | 21.5 mL/min/kg and 20.3 mL/min/kg and 24.4 mL/min/kg | 22.7 ng/mL and 24.3 ng/mL and 21.1 ng/mL | 0.2805 L/kg and 0.2624 L/kg and 0.3134 L/kg | 11.7 min and 12.0 min and 14.4 min | 7.96 | 7.78 | 21 | 21.4 | 23.3 | 0.277 | 12.1 | – | – | Plasma Concentration ([1]; 15 min, individual rats): 8467 pg/mL; level at 0.25 h [1, 6]: 8.6 ng/mL; level at 0.5 h [1, 8]: 3 ng/mL; level at 1 h [1, 10]: 0.566 ng/mL; level at 2 h [1, 11]: < 0.15 ng/mL; Cmax [1, 15]: 23.6 ng/mL; Vd [1, 13]: 0.263 L/kg; half-life [1, 13]: 11.6 min
6 | HVEGTFTSDVSSYLEEQAVKEFIAWLIKGGPSSGAPPPRG [SEQ ID NO:48] | – | – | – | – | – | – | – | – | – | – | – | – | – | – | – | – | – | – | 0.227 ± 0.04 | 1.09 ± 0.106 | –
7 | HVEGTFTSDVSSYLEEQAVKEFIAWLIKGGPSSGAPPPS [SEQ ID NO:42] | – | – | – | – | – | – | – | – | – | – | – | – | – | – | – | – | – | – | 0.276 ± 0.036 | 1.11 ± 0.139 | –
8 | HVEGTFTSDVSSYLEEQAVKEFIAWLIKGGPSSGAPPPS-NH2 [SEQ ID NO:13] | – | – | – | – | – | – | – | – | – | – | – | – | – | – | – | – | – | – | 0.366 ± 0.059 | 1.32 ± 0.211 | –
9 | HVEGTFTSDVSSYLEEQAVKEFIAWLIKGGPSSGAPPPSH [SEQ ID NO:43] | – | – | – | – | – | – | – | – | – | – | – | – | – | – | – | – | – | – | 0.306 ± 0.02 | 1.06 ± 0.034 | –
10 | HVEGTFTSDVSSYLEEQAVKEFIAWLIKGRGSSGAPPPS [SEQ ID NO:35] | – | – | – | – | – | – | – | – | – | – | – | – | – | – | – | – | – | – | 0.267 ± 0.031 | 1.04 ± 0.103 | –
